Experiments:
[1] = aqueous solubility of the polymorphic form; type: physicochemical; conditions: Form A as prepared by the procedures of the '479 patent
[2] = bioavailability of the polymorphic form; conditions: Form A as prepared by the procedures of the '479 patent
[3] = stability of the crystalline form; type: physicochemical
[4] = DSC thermogram of combined Forms A, B and C (melting points compared, solubility inferred); type: physicochemical; conditions: 10° C. per minute, nitrogen purge, FIG. 8
Experimental: DSC data were generated using a Mettler-Toledo DSC 821^e (Columbus, Ohio) with a Julabo FT900 intercooler chiller (Julabo Company; Allentown, Pa.). In general, samples were analyzed in a vented, sealed aluminum pan. Because the endothermic peak may vary depending upon the rate of heating and the calibration and precision of the instrument, with the amount of peak variation dependent upon the heating rate used, all thermograms included herein were run under the same, consistent conditions: heating at 10° C. per minute under a nitrogen purge at 40 mL/minute.
FIG. 8 illustrates a DSC thermogram for the combination of Form A, Form B and Form C having a second heating cycle with a maximum temperature of about 110° C. with a holding time of about 30 minutes. The peaks in the third heating cycle show a Form A to Form B to Form C peak area ratio of approximately 8:2:1, respectively, with the relative amount of Form A, Form B and Form C further variable on the heat of enthalpy of each polymorphic form.

[5] = DSC reheating of disturbed (scratched/stressed) sample: solid state phase transformation to Form A; type: physicochemical; conditions: DSC heating from 30° C. to approximately 200° C. at 10° C. per minute
Experimental: DSC data were generated using a Mettler-Toledo DSC 821^e (Columbus, Ohio) with a Julabo FT900 intercooler chiller (Julabo Company; Allentown, Pa.). In general, samples were analyzed in a vented, sealed aluminum pan. Because the endothermic peak may vary depending upon the rate of heating and the calibration and precision of the instrument, with the amount of peak variation dependent upon the heating rate used, all thermograms included herein were run under the same, consistent conditions: heating at 10° C. per minute under a nitrogen purge at 40 mL/minute. The resultant sample of Example 1A was disturbed with scratching, which caused the cilostazol sample to undergo a solid state phase transformation at approximately 119° C. followed by an endotherm of melt at approximately 160° C. (Form A) during heating by DSC from 30° C. to approximately 200° C. at 10° C. per minute. When the sample is stressed and reheated (as detailed in Example 2A), the sample undergoes a solid state phase transformation at approximately 147° C. followed by an endotherm of melt at about 160° C. (Form A) during heating by DSC from 30° C. to approximately 200° C. at 10° C. per minute. This disturbance of sample is believed to induce nucleation which preferentially causes Form A of cilostazol to form upon heating.

SMILES | aqueous solubility [1] | bioavailability [2] | stability of the polymorphic form [3] | solubility relative to Form A, suggested by lower melting point in DSC [4] | temperature of solid state phase transformation to Form A [5]
O=C1CCc2cc(OCCCCc3nnnn3C3CCCCC3)ccc2N1 [Form A, 6-[4-(1-cyclohexyl-1H-tetrazol-5-yl)butoxy]-3,4-dihydro-2(1H)-quinolinone] | low aqueous solubility | low bioavailability |  |  | 
O=C1CCc2cc(OCCCCc3nnnn3C3CCCCC3)ccc2N1 [Form B, 6-[4-(1-cyclohexyl-1H-tetrazol-5-yl)butoxy]-3,4-dihydro-2(1H)-quinolinone] |  |  | stable | more soluble than Form A | approximately 119 °C
O=C1CCc2cc(OCCCCc3nnnn3C3CCCCC3)ccc2N1 [Form C, 6-[4-(1-cyclohexyl-1H-tetrazol-5-yl)butoxy]-3,4-dihydro-2(1H)-quinolinone] |  |  | stable | more soluble than Form A | approximately 147 °C
